Results as given in patent US11660281B2, “Compositions and methods of treating or preventing fibrotic lung diseases” (YALE UNIVERSITY, priority 2017, dated 2023).

Legend:
[1] = system: Ppargc1a, Thra and Thrb expression in bleomycin induced mouse lungs; assay: quantitative RT-PCR of relative gene expression in lungs, bleomycin model of lung fibrosis; type: in vivo, mice (C57/BL6); conditions: GC-1 30 μg/kg intraperitoneally every other day, days 10-18 after bleomycin; lungs at day 21; FIGS. 3A-3C
Method: (§1) C57B1/6, 9-12 weeks-old, female mice were purchased from Taconic Lab. Mice were anesthetized by placing them in a chamber having paper towels soaked with 40% isoflurane solution. 1.5 U/kg of bleomycin (Hospira, Ill.) or equivalent volume (50 μl) of 0.9% normal saline was administered intratracheally. To test therapeutic efficacy in bleomycin-induced established fibrosis intraperitoneal thyroid hormone receptor beta agonist (GC-1, 30 μg/kg) was administered at days 10, 12, 14, 16 and 18 following bleomycin-administration and mice were sacrificed at day 21. The lungs were harvested for fibrotic assays
qRT-PCR assay: Gene expression was determined by TaqMan® (Life Technologies, Thermo Scientific Inc. Rockford Ill., USA) according to manufacturer's instruction. β-glucuronidase (Gusb) was employed as an internal standard control and the specific primers and probes were all obtained from Life Technologies (Thermo Scientific Inc. Rockford Ill., USA). […]
9-12 weeks-old, C57/BL6 female mice were treated every other day intraperitoneally with thyroid hormone receptor beta agonist GC-1 (30 μg/kg) or equivalent volume of empty vehicle (200 μl of normal saline 0.9%) at days 10-18 following intratracheal challenge with bleomycin (1.5 U/kg) or normal saline 0.9%. […] FIGS. 3A-3C illustrate quantitative RT-PCR analysis of Ppargc1a, Thra and Thrb relative expression in the bleomycin model of lung fibrosis. […]

[2] = system: bleomycin induced lung fibrosis; assay: bleomycin-induced established lung fibrosis in mice: fibrosis and Masson's Trichrome histology; type: in vivo, mice (C57/BL6); conditions: for collagen deposition in the interstitium, peribronchiolar, or perivascular space (Masson's Trichrome staining): days 10-18 after bleomycin, day 21 lung sections; for established fibrosis in bleomycin induced lung fibrosis: days 10-18 after intratracheal bleomycin 1.5 U/kg, sacrifice day 21
Method: as §1
Hydroxyproline: Lung hydroxyproline was analyzed with hydroxyproline colorimetric assay kit from Biovision (Milpitas, Calif.) following manufacturer's instruction.
Histology: Tissue sections (4 μm) were stained with Masson Trichrome (collagen/connective tissue), two slices per animal, and two animals per group.
FIG. 1 illustrates an experiment where mice with bleomycin-induced fibrosis were treated with GC-1 intraperitoneally. On Day 0, bleomycin was delivered intratracheally to the mice (1.5 U/kg). On days 10-18, the mice were administered 30 μg/kg of GC-1 (200 μl) or equivalent volume of vehicle (normal saline 0.9%).
9-12 weeks-old, C57/BL6 female mice were treated every other day intraperitoneally with thyroid hormone agonist GC-1 (30 μg/kg) or equivalent volume of empty vehicle (200 μl of normal saline 0.9%) at days 10-18, following intratracheal challenge with bleomycin (1.5 U/kg) or normal saline 0.9%. Mice were sacrificed at day 21. […] Data are expressed as mean hydroxyproline content per lung set (μg/gr lung)+SEM, n=8 mice/group, *p<0.05. FIGS. 2A-2D illustrate quantitative RT-PCR analysis of Col1a1, Col3a1, and FSP1 relative expression in the bleomycin model of lung fibrosis. Bars (means±SEM) are shown for the relative changes (fold) by setting the indicated control level to 1.0, *p<0.05. […]
9-12 weeks-old, C57/BL6 female mice were treated every other day orally by gavage with thyroid hormone receptor agonist GC-1 (5 mg/kg) or equivalent volume of empty vehicle (200 μl of normal saline 0.9%) at days 10-18 following intratracheal challenge with bleomycin (1.5 U/kg) or normal saline 0.9%. […] FIG. 5A: Hydroxyproline level in mice was assessed. Data are expressed as mean hydroxyproline content per lung set (μg/gr lung)+SEM, n=8 mice/group, *p<0.05. FIGS. 5B-5F illustrate quantitative RT-PCR analysis of Col1a1 (collagen, type I, alpha 1), Col3a1 (collagen, type III, alpha 1), FSP1 (fibroblast-specific protein 1), Acta (alpha-actin-2), and Ppargc1a (peroxisome proliferator-activated receptor gamma coactivator 1-alpha) relative expression in the bleomycin model of lung fibrosis. […]

Cc1cc(OCC(=O)O)cc(C)c1Cc1ccc(O)c(C(C)C)c1 [GC-1, 2-(4-(4-hydroxy-3-isopropylbenzyl)-3,5-dimethylphenoxy)acetic acid]
Ppargc1a relative expression (qRT-PCR) [1]: regulates expression
collagen deposition in the interstitium, peribronchiolar, or perivascular space (Masson's Trichrome staining) ([2]; GC-1 30 μg/kg intraperitoneally every other day, FIG. 2E): significant decrease in collagen deposition
established fibrosis in bleomycin induced lung fibrosis ([2]; GC-1 30 μg/kg intraperitoneally every other day, FIGS. 2A-2E): blunt established fibrosis
collagen deposition in the interstitium, peribronchiolar, or perivascular space (Masson's Trichrome staining) ([2]; GC-1 5 mg/kg orally by gavage every other day): significant decrease in collagen deposition
established fibrosis in bleomycin induced lung fibrosis ([2]; GC-1 5 mg/kg orally by gavage every other day, FIGS. 5A-5G): blunt established fibrosis
